Assay results: patent US11357743B2, “Ketamine and propofol admixture” (Mayo Foundation for Medical Education and Research, priority 2017, dated 2022)

Assays:
[1] = Nursing and patient assessment surveys after induction of general anesthesia with propofol or ketofol (randomized, double-blinded controlled trial)
From the text: 85 patients of ASA Class 1-2 scheduled for surgical procedures that involved general anesthesia were assigned to one of two arms, one involving induction with propofol and the other involving induction with “ketofol” (a ketamine/propofol combination) in a randomized, double-blinded controlled trial. Patients were placed on standard ASA monitors including a BIS monitor and a noninvasive cardiac output monitor (NICOM) prior to induction of general anesthesia.
One minute before induction, baseline hemodynamics were recorded with standard ASA monitors as well as with the NICOM. Providers were given one 20 ml syringe and one 10 ml syringe for rescue if needed. As part of the induction, fentanyl (1-2 mcg/kg) and any relaxant excluding succinylcholine and pancuronium was given. The 20 ml syringe in both groups looked identical, appeared to be propofol but depending on the group they were randomized to, it represented either 2 mg/kg of propofol (propofol group) or 0.75 mg/kg of ketamine and 1.5 mg/kg of propofol (“ketofol” group). The 10 ml rescue syringe, if used, represented 1 mg/kg of propofol (propofol group) or 0.25 mg/kg of ketamine and 0.5 mg/kg of propofol (“ketofol” group). Hemodynamics were recorded every minute for a total of 30 minutes post-induction. During this time, anesthesia was maintained with any volatile agent excluding nitrous oxide. […] Patients were given survey questions that centered on emergence, discharge times, pain control, and nausea/vomiting. In addition, nurses were also asked to fill out a survey which dealt with similar questions.

[2] = Ketofol vs etomidate for emergent endotracheal intubation in critically ill patients (randomized clinical trial); assay type: in vivo, human; details: share of group
[3] = Likert scaled responses from 0 (strongly disagree) to 7 (strongly agree)
[4] = Likert scaled responses from 0 (very poorly) to 7 (perfectly)

| SMILES | Patient Assessment: Emergence (woke up well), Mean [1, 3] | Patient Assessment: No PONV, Mean [1, 3] | Patient Assessment: No Pain, Mean [1, 3] | Nursing Assessment: Discharge (from unit), Mean [1, 4] | Nursing Assessment: Emergence (wake up), Mean [1, 4] | Nursing Assessment: Protection from PONV, Mean ([1]; Likert scaled responses from 0 (very poorly) to 7 (perfectly), PONV = post-operative nausea/vomiting) | Serious adverse events reported [2] |
| --- | --- | --- | --- | --- | --- | --- | --- |
| CC(C)c1cccc(C(C)C)c1O [Propofol, 2,6-diisopropylphenol] | 5.5 | 5.5 | 3.8 | 5.1 | 5.4 | 5.5 |  |
| CCOC(=O)c1cncn1[C@H](C)c1ccccc1 [etomidate] |  |  |  |  |  |  | 5% |
